Assay results taken from PMC6804824, “Volatile composition and classification of Lilium flower aroma types and identification, polymorphisms, and alternative splicing of their monoterpene synthase genes” (Horticulture Research, 2019).
Where a chain is given by its changes, count along the chain named.

Key:
Assay in all cases: GC-MS product analysis (SPME)
Type in all cases: biochemical
Conditions in all cases: 30 uM GPP, 10 mM MgCl2, pH 7.2, 30 C, 3 h; products (E)-beta-ocimene, alpha-pinene, limonene; results call protein purified, methods use sonicated cells
[1] = target: T1, LsoTPS-2 (Lilium hybrid cultivar, UniProt A0A2H4R3S6)
T1 construct: gene TPS; full length, 590 aa (ORF 1773 bp), plastid transit peptide intact; pTYB12 fusion vector; E. coli BL21(DE3); about 68 kDa
T1 sequence (A0A2H4R3S6 1-590): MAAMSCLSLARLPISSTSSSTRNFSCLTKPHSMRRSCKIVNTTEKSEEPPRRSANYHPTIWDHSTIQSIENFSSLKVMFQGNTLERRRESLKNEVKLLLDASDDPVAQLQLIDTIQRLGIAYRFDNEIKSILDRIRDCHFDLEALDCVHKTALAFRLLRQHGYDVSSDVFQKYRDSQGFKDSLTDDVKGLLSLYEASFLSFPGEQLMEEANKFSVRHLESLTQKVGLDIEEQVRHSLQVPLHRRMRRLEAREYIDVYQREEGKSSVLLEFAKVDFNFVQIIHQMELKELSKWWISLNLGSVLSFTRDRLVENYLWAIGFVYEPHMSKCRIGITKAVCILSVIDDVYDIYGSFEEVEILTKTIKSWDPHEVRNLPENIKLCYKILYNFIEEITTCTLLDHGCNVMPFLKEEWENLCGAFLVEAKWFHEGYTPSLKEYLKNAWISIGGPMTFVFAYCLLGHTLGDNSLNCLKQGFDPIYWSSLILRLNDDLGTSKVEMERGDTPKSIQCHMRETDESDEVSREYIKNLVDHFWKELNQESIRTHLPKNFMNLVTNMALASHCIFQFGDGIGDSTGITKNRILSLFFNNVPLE

[2] = target: T2, LrlTPS-3 (Lilium hybrid cultivar, UniProt A0A6M2RDN4)
T2 construct: full length, 548 aa (ORF 1647 bp), plastid transit peptide intact; pTYB12 fusion vector; E. coli BL21(DE3); about 62 kDa
T2 sequence (A0A6M2RDN4 1-548): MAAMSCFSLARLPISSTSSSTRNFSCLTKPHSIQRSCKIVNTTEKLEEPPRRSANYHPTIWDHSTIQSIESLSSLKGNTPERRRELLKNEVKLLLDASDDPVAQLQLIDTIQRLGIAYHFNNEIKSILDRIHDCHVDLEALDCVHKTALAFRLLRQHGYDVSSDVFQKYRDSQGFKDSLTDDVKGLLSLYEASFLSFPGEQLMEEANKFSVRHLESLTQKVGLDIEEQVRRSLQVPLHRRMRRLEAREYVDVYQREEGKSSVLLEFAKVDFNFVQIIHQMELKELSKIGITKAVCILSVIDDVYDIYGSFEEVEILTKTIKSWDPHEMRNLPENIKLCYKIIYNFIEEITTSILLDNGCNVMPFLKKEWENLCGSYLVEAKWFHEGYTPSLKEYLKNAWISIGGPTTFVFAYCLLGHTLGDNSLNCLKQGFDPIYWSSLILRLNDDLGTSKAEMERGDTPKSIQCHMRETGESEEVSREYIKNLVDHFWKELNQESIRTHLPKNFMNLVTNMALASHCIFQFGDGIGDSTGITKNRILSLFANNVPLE

[3] = target: T3, LsoTPS-1 / LrlTPS-1 (Lilium hybrid cultivar, UniProt A0A6M2RDI7)
T3 construct: full length, 586 aa (ORF 1761 bp), plastid transit peptide intact; pTYB12 fusion vector; E. coli BL21(DE3); about 67 kDa
T3 sequence (A0A6M2RDI7 1-586): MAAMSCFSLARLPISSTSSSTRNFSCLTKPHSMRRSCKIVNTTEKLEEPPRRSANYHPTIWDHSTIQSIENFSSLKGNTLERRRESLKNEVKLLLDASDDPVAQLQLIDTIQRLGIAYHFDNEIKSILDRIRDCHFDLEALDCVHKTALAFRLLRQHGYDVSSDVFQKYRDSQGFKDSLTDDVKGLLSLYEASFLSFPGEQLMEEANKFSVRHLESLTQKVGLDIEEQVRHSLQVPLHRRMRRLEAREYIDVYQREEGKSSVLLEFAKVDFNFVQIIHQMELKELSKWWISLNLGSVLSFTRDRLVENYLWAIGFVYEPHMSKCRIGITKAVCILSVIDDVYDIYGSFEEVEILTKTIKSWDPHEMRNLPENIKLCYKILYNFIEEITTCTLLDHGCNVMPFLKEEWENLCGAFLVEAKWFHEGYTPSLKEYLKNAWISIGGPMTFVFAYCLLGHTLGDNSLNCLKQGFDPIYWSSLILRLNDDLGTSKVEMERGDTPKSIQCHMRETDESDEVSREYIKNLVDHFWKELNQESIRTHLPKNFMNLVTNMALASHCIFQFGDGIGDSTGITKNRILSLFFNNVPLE

[4] = target: T4, LsoTPS-3 (Lilium hybrid cultivar, UniProt A0A6M2RCV8)
T4 construct: full length, 548 aa (ORF 1647 bp), plastid transit peptide intact; pTYB12 fusion vector; E. coli BL21(DE3); about 62 kDa
T4 sequence (A0A6M2RCV8 1-548): T2 sequence (A0A6M2RDN4 1-548) with P80L, R231H

## CC(C)=CCC/C(C)=C/COP(=O)(O)OP(=O)(O)O [GPP]
[1]
  GC-MS product analysis (SPME): all five proteins were able to convert GPP into (E)-β-ocimene, α-pinene, and limonene
[2]
  GC-MS product analysis (SPME): all five proteins were able to convert GPP into (E)-β-ocimene, α-pinene, and limonene
[3]
  GC-MS product analysis (SPME): all five proteins were able to convert GPP into (E)-β-ocimene, α-pinene, and limonene
[4]
  GC-MS product analysis (SPME): all five proteins were able to convert GPP into (E)-β-ocimene, α-pinene, and limonene
